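Test compounds were applied to cells in 96-well plates for 48 hours at 5 doses. GI50: concentration for 50% inhibition of growth.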 The source made the active and inactive calls. No stated cut-off is given here; in the data, active = GI50 up to about 1.1 µM and inactive = higher.
What was measured:
Experiment in all cases: NCI tumour cell line growth inhibition, 48 h
[1] = tested on: NCI-H226
[2] = tested on: UACC-257
[3] = tested on: MOLT-4
[4] = tested on: HCT-116
[5] = tested on: HOP-62
[6] = tested on: HL-60
[7] = tested on: NCI-H522
[8] = tested on: EKVX
[9] = tested on: Hs-578T
[10] = tested on: BT-549
[11] = tested on: SK-OV-3
[12] = tested on: CAKI-1
[13] = tested on: SR
[14] = tested on: SF-268
[15] = tested on: RXF 393
[16] = tested on: SK-MEL-5
[17] = tested on: ACHN
[18] = tested on: HCT-15
[19] = tested on: MCF7
[20] = tested on: HCC 2998

SMILES | GI50 [1] | GI50 [2] | GI50 [3] | GI50 [4] | GI50 [5] | GI50 [6] | GI50 [7] | GI50 [8] | GI50 [9] | GI50 [10] | GI50 [11] | GI50 [12] | GI50 [13] | GI50 [14] | GI50 [15] | GI50 [16] | GI50 [17] | GI50 [18] | GI50 [19] | GI50 [20]
CC(C)C(O)(C(C)C)C(C)C | > 100 µM (inactive) | > 100 µM (inactive) | > 100 µM (inactive) | > 100 µM (inactive) | > 100 µM (inactive) | > 100 µM (inactive) | > 100 µM (inactive) | > 100 µM (inactive) | > 100 µM (inactive) | > 100 µM (inactive) | > 100 µM (inactive) | > 100 µM (inactive) | > 100 µM (inactive) | > 100 µM (inactive) | > 100 µM (inactive) | > 100 µM (inactive) | > 100 µM (inactive) | > 100 µM | > 100 µM (inactive) | 
CC(=O)OCC1=CC2OC(=O)C3=COC(OC4OC(CO)C(O)C(O)C4O)C1C32 (configuration not stated) | > 100 µM (inactive) | > 100 µM (inactive) |  | > 100 µM (inactive) | > 100 µM (inactive) | > 100 µM (inactive) | > 100 µM (inactive) | > 100 µM (inactive) | > 100 µM (inactive) | > 100 µM (inactive) | > 100 µM (inactive) | > 100 µM (inactive) | 57 µM (inactive) | > 100 µM (inactive) |  | > 100 µM (inactive) | > 100 µM (inactive) | > 100 µM | > 100 µM (inactive) | > 100 µM (inactive)
S=C(Nc1c2c(nc3ccccc13)CCCC2)Nc1c2c(nc3ccccc13)CCCC2 | > 100 µM (inactive) | > 100 µM (inactive) | > 100 µM (inactive) | > 100 µM (inactive) | > 100 µM (inactive) |  | > 100 µM (inactive) | > 100 µM (inactive) | > 100 µM (inactive) | > 100 µM (inactive) | > 100 µM (inactive) | > 100 µM (inactive) | > 100 µM (inactive) | > 100 µM (inactive) | > 100 µM (inactive) | > 100 µM (inactive) | > 100 µM (inactive) | > 100 µM | > 100 µM (inactive) | > 100 µM (inactive)
S=C(N/N=C/c1ccccn1)N1CCCCC1 |  | < 0.01 µM (active) | < 0.01 µM (active) | < 0.01 µM (active) | < 0.01 µM (active) | < 0.01 µM (active) |  | 0.07 µM (active) | 0.902 µM (active) | 0.0249 µM (active) | < 0.01 µM (active) | < 0.0153 µM (active) | < 0.01 µM (active) | < 0.0178 µM (active) | 0.0705 µM (active) | < 0.0198 µM (active) | < 0.01 µM (active) | < 0.01 µM | < 0.01 µM (active) | 1.22 µM (inactive)
Cc1nc(C(N)=S)sc1/C(CC(=O)C(=O)Nc1cccc2ccc(O)cc12)=N\NC(=O)c1ccncc1 | 61.1 µM (inactive) | > 100 µM (inactive) | 28.2 µM (inactive) | 55.8 µM (inactive) | 37.5 µM (inactive) | 25.6 µM (inactive) | 34.5 µM (inactive) | > 100 µM (inactive) | > 100 µM (inactive) | > 100 µM (inactive) | > 100 µM (inactive) | > 100 µM (inactive) |  | 82.8 µM (inactive) | > 100 µM (inactive) | 33.2 µM (inactive) | > 100 µM (inactive) | 41.9 µM | 39.7 µM (inactive) | 59.8 µM (inactive)
O=C1OCN(c2ccccc2)C12CCN(Cc1ccccc1)CC2 | > 100 µM (inactive) | 16.7 µM (inactive) | 13.6 µM (inactive) | 31.7 µM (inactive) | 49.3 µM (inactive) | 27.8 µM (inactive) |  | > 100 µM (inactive) | 23.9 µM (inactive) | 67.1 µM (inactive) | 74.6 µM (inactive) | 45 µM (inactive) | 34.4 µM (inactive) | 43 µM (inactive) | 16.9 µM (inactive) | 19.5 µM (inactive) | 49.2 µM (inactive) | 33.7 µM | 32.6 µM (inactive) | 6.62 µM (inactive)
CCOc1ccc(/C=N/[N+](C)(C)C)cc1OCC |  | > 10 µM (inactive) | > 10 µM (inactive) | > 10 µM (inactive) | > 10 µM (inactive) |  | > 10 µM (inactive) |  | > 10 µM (inactive) | > 10 µM (inactive) | > 10 µM (inactive) | > 10 µM (inactive) | > 10 µM (inactive) | > 10 µM (inactive) |  | > 10 µM (inactive) | > 10 µM (inactive) | > 10 µM | > 10 µM (inactive) | > 10 µM (inactive)
C=C=C(CC(CC(=C)Br)(C(=O)OC)C(=O)OC)S(=O)(=O)c1ccccc1 | 6.12 µM (inactive) | 2.03 µM (inactive) | 1.91 µM (inactive) | 0.92 µM (active) | 5.21 µM (inactive) | 0.494 µM (active) | 0.556 µM (active) | 2.82 µM (inactive) | 2.39 µM (inactive) | 1.4 µM (inactive) | 16.6 µM (inactive) | 1.41 µM (inactive) |  | 2.37 µM (inactive) | 1.83 µM (inactive) | 3.11 µM (inactive) | 2.39 µM (inactive) | 1.51 µM | 1.87 µM (inactive) | 2.58 µM (inactive)
CC(=O)Nc1ccc(N2C(=O)CS(=O)(=O)C2c2cccc(Oc3ccccc3)c2)cc1 (configuration not stated) | 17.2 µM (inactive) | 16.8 µM (inactive) | 29.7 µM (inactive) | 20.1 µM (inactive) | 19.3 µM (inactive) | 23.5 µM (inactive) | 17.2 µM (inactive) | 15.4 µM (inactive) | 28.9 µM (inactive) | 16.8 µM (inactive) | 27.4 µM (inactive) |  | 20.3 µM (inactive) | 20.2 µM (inactive) | 18.9 µM (inactive) | 14.7 µM (inactive) | 16.6 µM (inactive) | 17.3 µM | 18.7 µM (inactive) | 
N=C(N)N/N=C/c1c(-c2ccccc2[N+](=O)[O-])nc2sccn12 | 17.4 µM (inactive) | 18.3 µM (inactive) | 17.7 µM (inactive) | 18.6 µM (inactive) | 25.7 µM (inactive) | 16.6 µM (inactive) | 17 µM (inactive) | 43.8 µM (inactive) | 29.1 µM (inactive) | 30.7 µM (inactive) | 42.9 µM (inactive) | 64.9 µM (inactive) | 14.4 µM (inactive) | 28.8 µM (inactive) | 12.6 µM (inactive) | 16.9 µM (inactive) | 39.3 µM (inactive) | > 100 µM | 19.1 µM (inactive) | 
C[n+]1c(-c2ccccc2)cc2/c(=C\c3ccc([N+](=O)[O-])cc3)c3ccccc3n21 | 2.65 µM (inactive) | 4.99 µM (inactive) | 0.966 µM (active) | 1.02 µM (active) | 4.84 µM (inactive) | 0.764 µM (active) | 0.385 µM (active) | 7.29 µM (inactive) | 1.29 µM (inactive) | 0.281 µM (active) | 4.8 µM (inactive) | 15.8 µM (inactive) |  | 3.47 µM (inactive) | 4.45 µM (inactive) | 1.95 µM (inactive) | 3.1 µM (inactive) | 14.3 µM | 2.1 µM (inactive) | 11.3 µM (inactive)
COc1ccccc1/N=N/C(=N\NC(=O)c1ccc(C)cc1)c1ccc(N(CCC#N)CCC#N)cc1C | 2.19 µM (inactive) | 40.3 µM (inactive) | 35.2 µM (inactive) | 31.6 µM (inactive) | 50.9 µM (inactive) |  |  | > 100 µM (inactive) | 39.3 µM (inactive) | 35.2 µM (inactive) | 32.5 µM (inactive) | > 100 µM (inactive) | 29.3 µM (inactive) | 38.1 µM (inactive) | 25.5 µM (inactive) | 20.8 µM (inactive) | 89.1 µM (inactive) | 41.4 µM | 34.6 µM (inactive) | 42.6 µM (inactive)
COC1CC2CCC(C)[C@](O)(O2)C(=O)C(=O)N2CCCCC2C(=O)OC(C(C)CC2CCC(O)C(OC)C2)CC(=O)C(C)C=C(C)C(OC(=O)CN(C)C)C(OC)C(=O)C(C)CC(C)/C=C/C=C/C=C\1C (some centres not stated) | 10.3 µM (inactive) | 11.3 µM (inactive) | < 0.01 µM (active) | 5.87 µM (inactive) | < 0.01 µM (active) | 2 µM (inactive) | 3.94 µM (inactive) | < 0.01 µM (active) | < 0.01 µM (active) | < 0.01 µM (active) | < 0.01 µM (active) |  | < 0.01 µM (active) | 7.19 µM (inactive) | < 0.01 µM (active) | 3.78 µM (inactive) | 0.0101 µM (active) | 10.4 µM | < 0.01 µM (active) | 
C1=CCC[C@@H]2CN3CCCC/C=C\CCCC[C@H]4C[C@H](CN(CCCCCCCC1)C4)[C@H]2CC3 | > 50 µM (inactive) | 10.2 µM (inactive) | 9.79 µM (inactive) | 9.12 µM (inactive) | 8.45 µM (inactive) | 12 µM (inactive) | 9.42 µM (inactive) | 11.3 µM (inactive) | 10.3 µM (inactive) | 12.9 µM (inactive) | > 50 µM (inactive) | 9.23 µM (inactive) | 9.25 µM (inactive) | 10.5 µM (inactive) |  | 9.27 µM (inactive) | 9.68 µM (inactive) | 10.4 µM | 9.18 µM (inactive) | 7.59 µM (inactive)
CCCCC(Sc1cc(Cl)c(C)cc1S(=O)(=O)Nc1nc(N)n[nH]1)C(=O)OC (configuration not stated) | > 10 µM (inactive) | > 10 µM (inactive) | > 10 µM (inactive) | > 10 µM (inactive) | > 10 µM (inactive) | > 10 µM (inactive) | > 10 µM (inactive) | > 10 µM (inactive) | > 10 µM (inactive) | > 10 µM (inactive) | > 10 µM (inactive) | > 10 µM (inactive) |  | > 10 µM (inactive) | > 10 µM (inactive) | > 10 µM (inactive) | > 10 µM (inactive) | > 10 µM | > 10 µM (inactive) | > 10 µM (inactive)

Source: ChEMBL document CHEMBL1201862, “PubChem BioAssay data set” (2004)
